Data: patent publication US11059855B2, “Antimicrobial peptides and methods of making and using same” (priority 2017, dated 2021)

Assays:
[1] = system: Escherichia coli biofilm; experiment: Activity against biofilm, E. coli; format: cell-based; details: 67-150 μM peptide, 3 hr treatment
Method: (§1) Selected analogues were tested with each (13A). Escherichia coli biofilm, (13B). Staphylococcus aureus biofilm, and (13C) Pseudomonas aeruginosa biofilm.
(§2) However, most of the LDKA analogues fail to treat S. aureus and P. aeruginosa biofilms. Only K7H and 7F3 are capable to reduce S. aureus biofilms by ˜50% with 100 μM peptide concentration, and none of the analogues work against P. aeruginosa biofilms (FIGS. 13a-13c).

[2] = Hemolysis assay; format: cell-based, human; details: human
Method: (§3) Fresh human red blood cells were obtained from Interstate Blood Bank, Inc., and thoroughly washed in PBS until the supernatant was clear. hRBC concentration was determined using a standard hemocytometer. In hemolysis assays serial dilutions of peptide were prepared, followed by the addition of 2×10^8 hRBC/mL. After incubation for 1 hr at 37° C. the cells were centrifuged and the released hemoglobin was measured by optical absorbance of the heme group (410 nm). Negative control was buffer only (0% lysis), and the positive control was 20 μM melittin and distilled water (100% lysis). The samples were done in triplicate.

[3] = system: human red blood cells; experiment: Hemolysis assay; format: cell-based
Method: as §3

[4] = system: ciprofloxacin-resistant E. coli
Method: “N.D.” means “not determined”.
Ceftazidime is active on the bacteria's cell wall and interferes with bacterial cell wall formation.^38,39 Ciprofloxacin is able to inhibit DNA gyrase, type II topoisomerase, and topoisomerase IV to separate bacterial DNA and inhibits cell division.^40 Streptomycin and gentamicin are antibiotics that can interrupt and inhibit protein synthesis.^41,42 E. coli strain ATCC 25922 cultures were grown in the presence of each of these antibiotics at elevated concentration for 10 generations.

[5] = Membrane selectivity from high-throughput dye leakage screen; format: biochemical; details: PC = POPC, PG = POPG
From the text: (§4) This detects and quantifies the release of a small fluorescent dye (ANTS/DPX; MW=˜400 Da) encapsulated in LUVs after addition of library peptides. Neutral POPC LUVs serve as a simple model for mammalian membranes, while charged POPG LUVs mimic bacterial membranes enriched in anionic lipids.

[6] = Circular dichroism secondary structure (Dichroweb), with POPC; format: physicochemical
Method: (§5) Dichroweb software analyzes the secondary structure of LDKA peptides from circular dichroism spectroscope. The table presents the percentage of each helix and strand structure at different temperature. The data are analyzed using CONTIN-LL method and Reference Set 4 (Optimised for 190-240 nm).
(§6) Peptide solutions (peptide concentration is 50 μM) were titrated with POPC and POPG LUVs (50, 100, 250, 500, 1000 μM) and the corresponding changes CD spectra collected. Analysis of these spectra using CD tools and Dichroweb provides an ensemble average of the changes in secondary structure in the presence of POPC and POPG LUVs (dichroweb.cryst.bbk.ac.uk), which gives a direct measure of the binding free energies for each peptide.

[7] = 3-kDa dextran macromolecule release assay, POPC; format: biochemical; details: P:L = 1:1000, pH 7 phosphate buffer
Method: Several different size dextrans were prepared and labelled with both TAMRA and biotin. Conjugated dextran was entrapped in POPC LUVs as described above. External dextran was removed by incubation with immobilized streptavidin. Streptavidin labelled with an Alexa-488 fluorophore was added during the leakage experiment with the peptide as previous described.^5 The sample was then incubated for 3 hr before measuring Alexa-488 fluorescence. A control without added peptide served as the 0% leakage signal and addition of 0.05% vol. Triton X-100 was used to determine 100% leakage.

[8] = ANTS/DPX leakage assay, POPC; format: biochemical; details: P:L = 1:1000, pH 7 phosphate buffer
Method: (§7) 5 mM ANTS and 12.5 mM DPX were entrapped in 0.1 μm diameter extruded vesicles with lipids. Gel filtration chromatography of Sephadex G-100 (GE Healthcare Life Sciences Inc.) was used to remove external free ANTS/DPX from LUVs with entrapped contents. […] Leakage was measured after 3 hr incubation. 10% Triton was used as the positive control to measure the maximum leakage of the vesicle. Fluorescence emission spectra were recorded using excitation wavelength (Ex: 350 nm) and emission wavelength (Em: 510 nm) for ANTS/DPX using Synergy H1 Hybrid Multi-Mode Reader.
as §4

[9] = ANTS/DPX leakage assay, POPG; format: biochemical; details: P:L = 1:1000, pH 7 phosphate buffer
Method: as §7, §4

[10] = provided by the distributor, GenScript; cited from earlier work
[11] = Pore-size characterization by 3-kDa dextran release; format: biochemical; details: ‡Large pore for PG only
From the text: Eight LDKA peptides with different lipid selectivity and pore sizes were selected from the high-throughput screen and sequenced. […] The most common mutation is L to A, occurred 13 times and in 7 out of the 8 peptides, followed by A to L, which occurred 6 times in 5 peptides, L to D which occurred 3 times in 3 peptides, and L to P that occurred once. Lysine (K) is not favorable to be shown at the position 6, 8, 10, 12, and 13, which is the non-polar face of the helical structure. […] More specifically, the analogs only induce leakage from anionic POPG vesicles have 4-5 leucines, which is less than the analogs that can porate both POPC and POPG vesicles and have 6-7 leucines in their sequences.

[12] = Circular dichroism secondary structure (Dichroweb), with POPG; format: physicochemical
Method: as §5, §6

[13] = Circular dichroism secondary structure (Dichroweb), peptide only; format: physicochemical; details: 20 °C
Method: as §5, §6

[14] = system: Staphylococcus aureus biofilm; experiment: Activity against biofilm, S. aureus; format: cell-based; details: 100 μM peptide concentration, 3 hr treatment
Method: as §1, §2

[15] = 3-kDa dextran macromolecule release assay, POPG; format: biochemical; details: P:L = 1:1000, pH 7 phosphate buffer
[16] = system: P. aeruginosa; experiment: Bacterial minimum inhibitory concentration (MIC), P. aeruginosa; format: cell-based, Pseudomonas aeruginosa; details: 75 μM maximum tested; NDA = not determinable
Method: (§8) Escherichia colt strain ATCC 25922, Staphylococcus aureus strain ATCC 25923, and Pseudomonas aeruginosa strain ATCC PAO1 were used in this study. Overnight cultures were subcultured to log phase (OD600=0.3-0.6) after which cell counts were determined by measuring the OD600 (OD600 1.0=1.5×10^8 CFU/mL for S. aureus, 5×10^8 CFU/mL for E. colt, and 2.04×10^8 CFU/mL for P. aeruginosa). Bacteria in minimal media mere added to serially diluted peptides and incubated for 3 hr, followed by the addition of full growth media. After overnight incubation, the optical density of the wells was recorded on a plate reader to determine whether they were sterilized (OD<0.08) or were at stationary phase growth (OD600>0.5). Intermediate values, which were rare, were considered positive for growth. Average minimum sterilizing concentrations were calculated from the lowest peptide concentration that sterilized the bacteria in each serial dilution. The samples were done in sextuplet.

[17] = system: S. aureus; experiment: Bacterial minimum inhibitory concentration (MIC), S. aureus; format: cell-based, Staphylococcus aureus; details: 75 μM maximum tested; NDA = not determinable
Method: as §8

[18] = previous work; cited from earlier work
[19] = system: methicillin-resistant Staphylococcus aureus (MRSA); format: cell-based; details: 75 μM maximum tested; NDA = not determinable

Substance | Peptide-POPC, Helix ([6]; 20 °C) [%] | Peptide-POPC, Strand ([6]; 20 °C) [%] | Peptide-POPC, Helix ([6]; 45 °C) [%] | Peptide-POPC, Strand ([6]; 45 °C) [%] | Peptide-POPC, Helix ([6]; 70 °C) [%] | Peptide-POPC, Strand ([6]; 70 °C) [%] | Peptide-POPC, Helix ([6]; 95 °C) [%] | Peptide-POPC, Strand ([6]; 95 °C) [%] | Solubility, DMSO [10] [µg/mL] | Solubility, DPBS pH 7.1 [10] [mg/mL] | Solubility, Ultrapure Water [10] [µg/mL] | Peptide-POPG, Helix ([12]; 20 °C) [%] | Peptide-POPG, Strand ([12]; 20 °C) [%] | Peptide-POPG, Helix ([12]; 45 °C) [%] | Peptide-POPG, Strand ([12]; 45 °C) [%] | Peptide-POPG, Helix ([12]; 70 °C) [%] | Peptide-POPG, Strand ([12]; 70 °C) [%] | Peptide-POPG, Helix ([12]; 95 °C) [%] | Peptide-POPG, Strand ([12]; 95 °C) [%] | Peptide-only, Helix [13] [%] | further results
H-GLADLAKLLLKLLGW-NH2 [Peptide 7F3] | 82 | 1 | 77 | 2 | 76 | 3 | 70 | 4 | 15000 | <0.1 | 5000 | 52 | 12 | 58 | 7 | 66 | 2 | 76 | 2 | 75 | Elimination of E. coli biofilm [1]: ~50%; HC50 at 1 hr [2]: 1100 nM; Hemolytic activity (in words) [3]: significantly haemolytic; MIC, ciprofloxacin-resistant E. coli [4]: completely fail; Membrane selectivity (POPC vs POPG vesicles) [5]: Non-selective; 3-kDa Dextran release, POPC [7]: -3%; ANTS/DPX release, POPC [8]: 88%; ANTS/DPX release, POPG [9]: 106%; Pore size [11]: Small; Peptide-only, Strand [13]: 4%; Reduction of S. aureus biofilms [14]: ~50%; 3-kDa Dextran release, POPG [15]: 46%; Minimum Inhibitory Concentration, P. aeruginosa [16]: NDA
H-GLLDLLHLLLKAAGW-NH2 [Peptide K7H] | 65 | 5 | 80 | 1 | 80 | 2 | 72 | 3 | 15000 | <0.1 | 1000 | 53 | 11 | 59 | 8 | 77 | 2 | 77 | 2 | 62 | CC50 at 1 hr [2]: 2300 nM; Minimum Inhibitory Concentration, S. aureus [17]: 3 µM; Peptide-only, Strand [13]: 4%; Reduction of S. aureus biofilms [14]: ~50%; Minimum Inhibitory Concentration, P. aeruginosa [16]: does not inhibit and NDA
GL6RL6G: polyleucine-based peptide of the acetyl-GLnRLnG-amide family, n=6 (SEQ ID NO: 29) (Ac-GLLLLLLRLLLLLLG-NH2) |  |  |  |  |  |  |  |  |  |  |  |  |  |  |  |  |  |  |  |  | ΔGS→TM [18]: 0.5 ± 0.3 kcal/mol
H-GLLDLLKLLLKLAGW-NH2 [Peptide 28H6] | 58 | 10 | 64 | 6 | 68 | 6 | 65 | 3 | 15000 | <0.1 | 500 | 18 | 32 | 23 | 29 | 27 | 25 | 55 | 7 | 63 | HC50 at 1 hr [2]: 1200 nM; Hemolytic activity (in words) [3]: significantly haemolytic; Minimum Inhibitory Concentration, S. aureus [17]: NDA; Membrane selectivity (POPC vs POPG vesicles) [5]: Non-selective; 3-kDa Dextran release, POPC [7]: 38%; Minimum Inhibitory Concentration, MRSA [19]: NDA; ANTS/DPX release, POPC [8]: 99%; ANTS/DPX release, POPG [9]: 105%; Pore size [11]: Large; Peptide-only, Strand [13]: 4%; 3-kDa Dextran release, POPG [15]: 67%; Minimum Inhibitory Concentration, P. aeruginosa [16]: NDA
GL5RL5G: polyleucine-based peptide of the acetyl-GLnRLnG-amide family, n=5 (SEQ ID NO: 28) (Ac-GLLLLLRLLLLLG-NH2) |  |  |  |  |  |  |  |  |  |  |  |  |  |  |  |  |  |  |  |  | ΔGS→TM [18]: 2.1 ± 0.2 kcal/mol
